Laboratory results taken from patent US5028622A, “Administration of amino acids as treatment for neurodegenerative disorders” (Ajinomoto Company, Inc., priority 1989, dated 1991).
Entries after “also recorded” stand apart in the source; their conditions may differ. Where two headings read alike, the source gives them in different places. One block for each compound: values may come before it.

Columns and labels:
[1] = Random blood samples during the one-year trial: plasma amino acid levels; type: in vivo, human; details: amino acid-treated ALS patients
Description: (§1) Baseline blood chemistries and complete blood counts (CBC were obtained. To assure bioavailability of the BCAA, an oral test dose of the above-described mixture or placebo was given after overnight fasting at baseline. Blood samples were drawn at 0, 60 and 120 minutes after dosing for multi-chemistries, CBSs and serum ammonia and amino acid levels. In addition, a random blood sample was obtained for the above studies at three month intervals with no attention paid to time of oral dosing. Plasma amino acid levels were assayed as previously described. [A. Platakis and J. Caroscio, "Abnormal Glutamate Metabolism in Amyotrophic Lateral Sclerosis, " Ann Neurol, 1987, 22:575-579. The contents of this article are herein incorporated by reference]

[2] = test system: glutamate dehydrogenase (GDH); details: literature (Yielding and Tomkins 1961); cited from earlier work
clinical = details: human, in vivo
From the text: FIG. 4. Results of the branched-chain amino acid oral test dose. […] Blood samples were drawn at the times indicated and processed as previously described(5). Data points represent mean values from 9 patients ±SEM. * Denotes p<0.001 and p<005. Symbols refer comparisons to 0 time values according to the student's t-test.
as §1

ALS = details: literature (Patten and Klein 1988); cited from earlier work
[3] = in vivo; cited from earlier work
[4] = biological target: T1, glutamate dehydrogenase (GDH) (Homo sapiens, UniProt P00367); test: In vitro leucine activation of membrane bound GDH in post mortem brain tissue; type: biochemical; details: for activity at 250 µM: leucine 0.25 mM; for activity at 500 µM: leucine 0.50 mM; for activity at 1000 µM: leucine 1.0 mM; for activity at 5000 µM: leucine 5.0 mM; for activity at 10000 µM: leucine 10 mM
T1 construct: GDH present in post mortem brain tissue; from tissue; host or cells: human post mortem brain: cerebellum (control and multisystem atrophy patient 1), frontal cortex (multisystem atrophy patient 2)
T1 sequence (P00367 54-558): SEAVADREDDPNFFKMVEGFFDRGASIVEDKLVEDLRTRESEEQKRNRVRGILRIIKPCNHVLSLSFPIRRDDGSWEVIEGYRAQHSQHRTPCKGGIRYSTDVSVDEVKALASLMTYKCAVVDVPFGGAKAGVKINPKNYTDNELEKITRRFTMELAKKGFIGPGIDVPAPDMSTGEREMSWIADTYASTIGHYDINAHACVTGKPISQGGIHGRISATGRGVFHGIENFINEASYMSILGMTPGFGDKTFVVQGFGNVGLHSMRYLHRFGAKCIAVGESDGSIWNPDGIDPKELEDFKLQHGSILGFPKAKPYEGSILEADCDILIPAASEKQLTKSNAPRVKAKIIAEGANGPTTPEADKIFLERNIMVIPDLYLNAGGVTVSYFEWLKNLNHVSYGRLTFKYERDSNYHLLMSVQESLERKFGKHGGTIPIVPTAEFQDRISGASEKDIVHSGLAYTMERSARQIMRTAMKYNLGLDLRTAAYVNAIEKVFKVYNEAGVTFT
From the text: (Table 4) Tissue preparation and GDH determinations were done according to methods previously reported. [A. D. Colon, A. Plaitakis, S. Berl, and D. D. Clark. "The purification and characterization of soluble and particulate Glutamate Dehydrogenase in Rat Brain," Neurochemistry, 1986, 46:1811-1819. The contents of this publication are herein incorporated by reference] […] FIG. 4.

[5] = Control Patient Cerebellum, read-out: Percent Baseline GDH Activity
[6] = Multisystem Atrophy Multineuron Disease Patient 1 Cerebellum, read-out: Percent Baseline GDH Activity
[7] = Multisystem Atrophy Multineuron Disease Patient 2 Frontal Cortex, read-out: Percent Baseline GDH Activity

plasma level higher than that of placebo-treated patients [1]: 61%
increase in plasma level following oral dosing (clinical; 60 min): 95%
increase in plasma level following oral dosing (clinical; 120 min): 53%
SMILES: CC(C)[C@H](N)C(=O)O [L-valine]
activation of glutamate dehydrogenase in vitro [2]: allosterically activate

plasma level higher than that of placebo-treated patients [1]: 93%
increase in plasma level following oral dosing (clinical; 60 min): 393%
increase in plasma level following oral dosing (clinical; 120 min): 183%
SMILES: CC[C@H](C)[C@H](N)C(=O)O [L-isoleucine]
status of ALS patients treated with it as placebo substituted for L-threonine (ALS): revert to previous status
activation of glutamate dehydrogenase in vitro [2]: allosterically activate; also recorded: can be activated

activity at 250 µM [4, 5]: 117%
activity at 500 µM [4, 5]: 135%
activity at 1000 µM [4, 5]: 143%
activity at 2500 µM ([4]; Control Patient Cerebellum, leucine 2.5 mM, read-out: Percent Baseline GDH Activity): 155%
activity at 5000 µM [4, 5]: 155%
activity at 10000 µM [4, 5]: 160%
activity at 250 µM [4, 6]: 117%
activity at 500 µM [4, 6]: 153%
activity at 1000 µM [4, 6]: 186%
activity at 5000 µM [4, 6]: 176%
activity at 10000 µM [4, 6]: 176%
activity at 150 µM ([4]; Multisystem Atrophy Multineuron Disease Patient 2 Frontal Cortex, leucine 0.15 mM, read-out: Percent Baseline GDH Activity): 122%
activity at 250 µM [4, 7]: 128%
activity at 500 µM [4, 7]: 141%
lowest concentration effective in producing increases in GDH activity ([4]; post mortem brain tissue, effect concentration dependent): 0.15 mM
plasma level higher than that of placebo-treated patients [1]: 112%
increase in plasma level following oral dosing (clinical; 60 min): 300%
increase in plasma level following oral dosing (clinical; 120 min): 192%
concentration at 1 h (clinical; po): ~450 µM
concentration at 2 h (clinical; po): ~300 µM
SMILES: CC(C)C[C@H](N)C(=O)O [L-leucine]
effect on plasma and CSF levels of the other two BCAAs [3]: severely depress
status of ALS patients treated with it as placebo substituted for L-threonine (ALS): revert to previous status
activation of glutamate dehydrogenase in vitro [2]: allosterically activate; also recorded: can be activated
